# In patent US10150760B2, “Compounds for use in preparing heterocyclic triazole agonists of the APJ receptor” (AMGEN INC., priority 2016, dated 2018):
# Biological target: human APJ receptor (Homo sapiens (Human), UniProt P35414)
# Assay: [35S]GTPγS binding assay on membranes from CHO cells stably expressing human APJ receptor
# Assay type: biochemical
# Conditions: read-out: Activity hAPJ SPA EC50 IP
# Method in brief: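 Membranes from CHO cells stably expressing human APJ incubated with ligand, 0.2 nM [35S]GTPγS and WGA SPA beads in HEPES pH 7.5 with 5 mM MgCl2, 200 mM NaCl, 3 μM GDP, 90 min at RT. Nonspecific binding defined with 100 μM GTPγS; EC50 by non-linear regression.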
# human APJ receptor, sequence (P35414 whole entry): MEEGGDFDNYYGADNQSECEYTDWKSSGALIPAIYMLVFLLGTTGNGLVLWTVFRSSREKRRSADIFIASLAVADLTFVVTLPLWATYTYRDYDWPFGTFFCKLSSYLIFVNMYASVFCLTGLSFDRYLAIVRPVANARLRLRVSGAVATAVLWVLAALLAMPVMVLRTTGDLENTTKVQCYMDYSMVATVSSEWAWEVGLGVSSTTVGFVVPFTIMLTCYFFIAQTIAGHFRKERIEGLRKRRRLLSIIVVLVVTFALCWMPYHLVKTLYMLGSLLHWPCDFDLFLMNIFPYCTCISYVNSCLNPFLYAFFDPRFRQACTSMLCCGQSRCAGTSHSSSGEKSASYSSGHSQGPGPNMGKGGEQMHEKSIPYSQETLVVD
row,Compound,EC50 [nM]
1,"COc1cccc(OC)c1-n1c(NS(=O)(=O)[C@@H](C)[C@H](C)c2ncc(F)cn2)nnc1[C@@H]1COCCO1 (single isomer, unassigned) [Example 276.0, (2S,3R)-N-(4-(2,6-dimethoxyphenyl)-5-((R)-1,4-dioxan-2-yl)-4H-1,2,4-triazol-3-yl)-3-(5-fluoropyrimidin-2-yl)butane-2-sulfonamide or (2S,3R)-N-(4-(2,6-dimethoxyphenyl)-5-((S)-1,4-dioxan-2-yl)-4H-1,2,4-triazol-3-yl)-3-(5-fluoropyrimidin-2-yl)butane-2-sulfonamide]",33
2,"(2S,3R)-3-(5-chloro-2-pyridinyl)-N-(4-(1,3-dimethoxy-2-propanyl)-5-((2R,5R)-5-methyltetrahydro-2-furanyl)-4H-1,2,4-triazol-3-yl)-2-butanesulfonamide or (2S,3R)-3-(5-chloro-2-pyridinyl)-N-(4-(1,3-dimethoxy-2-propanyl)-5-((2S,5S)-5-methyltetrahydro-2-furanyl)-4H-1,2,4-triazol-3-yl)-2-butanesulfonamide [Example 373.0]",8
3,"(1R,2S)-N-(4-(2,6-dimethoxyphenyl)-5-((S)-tetrahydro-2H-pyran-3-yl)-4H-1,2,4-triazol-3-yl)-1-hydroxy-1-(5-methylpyrimidin-2-yl)propane-2-sulfonamide or (1R,2S)-N-(4-(2,6-dimethoxyphenyl)-5-((R)-tetrahydro-2H-pyran-3-yl)-4H-1,2,4-triazol-3-yl)-1-hydroxy-1-(5-methylpyrimidin-2-yl)propane-2-sulfonamde [Example 194.0]",20
4,"COc1ncnc(OC)c1-n1c(NS(=O)(=O)[C@@H](C)[C@H](C)c2ccc(C#N)cn2)nnc1[C@H]1CCOC1 (single isomer, unassigned) [Example 383.0, (2S,3R)-3-(5-cyano-2-pyridinyl)-N-(4-(4,6-dimethoxy-5-pyrimidinyl)-5-((3R)-tetrahydro-3-furanyl)-4H-1,2,4-triazol-3-yl)-2-butanesulfonamide or (2S,3R)-3-(5-cyano-2-pyridinyl)-N-(4-(4,6-dimethoxy-5-pyrimidinyl)-5-((3S)-tetrahydro-3-furanyl)-4H-1,2,4-triazol-3-yl)-2-butanesulfonamide]",680
5,"COc1cccc(OC)c1-n1c(NS(=O)(=O)CCc2ccc(Cl)cc2)nnc1[C@@H]1CCCO1 (single isomer, unassigned) [Example 145.0, (S)-2-(4-Chlorophenyl)-N-(4-(2,6-dimethoxyphenyl)-5-(tetrahydrofuran-2-yl)-4H-1,2,4-triazol-3-yl)ethanesulfonamide or (R)-2-(4-chlorophenyl)-N-(4-(2,6-dimethoxyphenyl)-5-(tetrahydrofuran-2-yl)-4H-1,2,4-triazol-3-yl)ethanesulfonamide]",830
6,"(1S,2S)-N-(4-(1,3-dimethoxy-2-propanyl)-5-((2R,5R)-5-methyltetrahydro-2-furanyl)-4H-1,2,4-triazol-3-yl)-1-(5-methyl-2-pyrazinyl)-1-(2-propanyloxy)-2-propanesulfonamide or (1S,2S)-N-(4-(1,3-dimethoxy-2-propanyl)-5-((2S,5S)-5-methyltetrahydro-2-furanyl)-4H-1,2,4-triazol-3-yl)-1-(5-methyl-2-pyrazinyl)-1-(2-propanyloxy)-2-propanesulfonamide [Example 365.0]",72
7,"(1R,2S)-1-(5-chloropyrimidin-2-yl)-N-(4-(2,6-dimethoxyphenyl)-5-((R)-1,4-dioxan-2-yl)-4H-1,2,4-triazol-3-yl)-1-methoxypropane-2-sulfonamide or (1R,2S)-1-(5-chloropyrimidin-2-yl)-N-(4-(2,6-dimethoxyphenyl)-5-((S)-1,4-dioxan-2-yl)-4H-1,2,4-triazol-3-yl)-1-methoxypropane-2-sulfonamide [Example 197.0]",1
8,"Cc1cnc([C@@H](C)[C@H](C)S(=O)(=O)Nc2nnc([C@H]3CCCO3)n2-c2c(F)cncc2F)nc1 [Example 26.0, (2S,3R)-N-(4-(3,5-difluoro-4-pyridinyl)-5-((2R)-tetrahydro-2-furanyl)-4H-1,2,4-triazol-3-yl)-3-(5-methyl-2-pyrimidinyl)-2-butanesulfonamide]",870
9,"COCC1(n2c(NS(=O)(=O)[C@@H](C)[C@H](OC)c3ncc(Cl)cn3)nnc2[C@H]2CCOC2)CC1 (mixture of isomers) [Example 303.0, (1R,2S)-1-(5-chloro-2-pyrimidinyl)-1-methoxy-N-(4-(1-(methoxymethyl)cyclopropyl)-5-((3R)-tetrahydro-3-furanyl)-4H-1,2,4-triazol-3-yl)-2-propanesulfonamide and (1R,2S)-1-(5-chloro-2-pyrimidinyl)-1-methoxy-N-(4-(1-(methoxymethyl)cyclopropyl)-5-((3S)-tetrahydro-3-furanyl)-4H-1,2,4-triazol-3-yl)-2-propanesulfonamide]",340
10,"COCC1(n2c(NS(=O)(=O)[C@@H](C)[C@H](OC)c3ncc(Cl)cn3)nnc2[C@H]2CCC(C)(C)O2)CC1 (single isomer, unassigned) [Example 289.0, (1R,2S)-1-(5-chloropyrimidin-2-yl)-N-(5-((R)-5,5-dimethyltetrahydrofuran-2-yl)-4-(1-(methoxymethypcyclopropyl)-4H-1,2,4-triazol-3-yl)-1-methoxypropane-2-sulfonamide or (1R,2S)-1-(5-chloropyrimidin-2-yl)-N-(5-((S)-5,5-dimethyltetrahydrofuran-2-yl)-4-(1-(methoxymethypcyclopropyl)-4H-1,2,4-triazol-3-yl)-1-methoxypropane-2-sulfonamide]",1100
11,"COc1cccc(OC)c1-n1c(NS(=O)(=O)[C@@H](C)[C@H](C)c2ncc(F)cn2)nnc1[C@H]1CCOC1 (single isomer, unassigned) [Example 274.0, (2S,3R)-N-(4-(2,6-dimethoxyphenyl)-5-((R)-tetrahydrofuran-3-yl)-4H-1,2,4-triazol-3-yl)-3-(5-fluoropyrimidin-2-yl)butane-2-sulfonamide or (2S,3R)-N-(4-(2,6-dimethoxyphenyl)-5-((S)-tetrahydrofuran-3-yl)-4H-1,2,4-triazol-3-yl)-3-(5-fluoropyrimidin-2-yl)butane-2-sulfonamide]",78
12,"COc1cccc(OC)c1-n1c(NS(=O)(=O)[C@@H](C)[C@H](C)c2ncc(Cl)cn2)nnc1[C@@H]1COC(C)(C)C1 (single isomer, unassigned) [Example 394.0, (2S,3R)-3-(5-chloro-2-pyrimidinyl)-N-(4-(2,6-dimethoxyphenyl)-5-((3R)-5,5-dimethyltetrahydro-3-furanyl)-4H-1,2,4-triazol-3-yl)-2-butanesulfonamide or (2S,3R)-3-(5-chloro-2-pyrimidinyl)-N-(4-(2,6-dimethoxyphenyl)-5-((3S)-5,5-dimethyltetrahydro-3-furanyl)-4H-1,2,4-triazol-3-yl)-2-butanesulfonamide]",20
13,"CO[C@H](c1ncc(Cl)cn1)[C@H](C)S(=O)(=O)Nc1nnc([C@@H]2CC[C@H](C)O2)n1Cc1ccon1 (single isomer, unassigned) [Example 404.0, (1R,2S)-1-(5-chloro-2-pyrimidinyl)-1-methoxy-N-(5-((2S,5S)-5-methyltetrahydro-2-furanyl)-4-(1,2-oxazol-3-ylmethyl)-4H-1,2,4-triazol-3-yl)-2-propanesulfonamide or (1R,2S)-1-(5-chloro-2-pyrimidinyl)-1-methoxy-N-(5-((2R,5R)-5-methyltetrahydro-2-furanyl)-4-(1,2-oxazol-3-ylmethyl)-4H-1,2,4-triazol-3-yl)-2-propanesulfonamide]",81
14,"(1R,2S)-1-(5-chloropyrimidin-2-yl)-N-(4-(2,6-dimethoxyphenyl)-5-((3aR,6aR)-hexahydro-3aH-cyclopenta[b]furan-3a-yl)-4H-1,2,4-triazol-3-yl)-1-methoxypropane-2-sulfonamide or (1R,2S)-1-(5-chloropyrimidin-2-yl)-N-(4-(2,6-dimethoxyphenyl)-5-((3aS,6aS)-hexahydro-3aH-cyclopenta[b]furan-3a-yl)-4H-1,2,4-triazol-3-yl)-1-methoxypropane-2-sulfonamide [Example 347.0]",360
15,"COc1cccc(OC)c1-n1c(NS(=O)(=O)[C@@H](C)[C@@H](OC(C)C)c2ncc(C)cn2)nnc1[C@H]1CCOC1 (single isomer, unassigned) [Example 99.0, (1S,2S)-N-(4-(2,6-dimethoxyphenyl)-5-((R)-tetrahydrofuran-3-yl)-4H-1,2,4-triazol-3-yl)-1-isopropoxy-1-(5-methylpyrimidin-2-yl)propane-2-sulfonamide or (1S,2S)-N-(4-(2,6-dimethoxyphenyl)-5-((S)-tetrahydrofuran-3-yl)-4H-1,2,4-triazol-3-yl)-1-isopropoxy-1-(5-methylpyrimidin-2-yl)propane-2-sulfonamide]",2.5
16,"COc1cccc(OC)c1-n1c(NS(=O)(=O)[C@@H](C)[C@H](C)c2cnc(C)cn2)nnc1[C@H]1CCCCO1 (single isomer, unassigned) [Example 106.0, (2S,3R)-N-(4-(2,6-dimethoxyphenyl)-5-((S)-tetrahydro-2H-pyran-2-yl)-4H-1,2,4-triazol-3-yl)-3-(5-methylpyrazin-2-yl)butane-2-sulfonamide or (2S,3R)-N-(4-(2,6-dimethoxyphenyl)-5-((R)-tetrahydro-2H-pyran-2-yl)-4H-1,2,4-triazol-3-yl)-3-(5-methylpyrazin-2-yl)butane-2-sulfonamide]",53
17,"COc1cccc(OC)c1-n1c(NS(=O)(=O)[C@@H](C)[C@H](C)c2ncc(Cl)cn2)nnc1[C@H]1CCC(=O)N1 (single isomer, unassigned) [Example 343.0, (2S,3R)-3-(5-chloropyrimidin-2-yl)-N-(4-(2,6-dimethoxyphenyl)-5-((R)-5-oxopyrrolidin-2-yl)-4H-1,2,4-triazol-3-yl)butane-2-sulfonamide or (2S,3R)-3-(5-chloropyrimidin-2-yl)-N-(4-(2,6-dimethoxyphenyl)-5-((S)-5-oxopyrrolidin-2-yl)-4H-1,2,4-triazol-3-yl)butane-2-sulfonamide]",730
